Entries after “also recorded” stand apart in the source; their conditions may differ.

One data set concerns the target MERS-CoV RdRp (Middle East respiratory syndrome-related coronavirus, UniProt K9N7C7). The data set is described as follows: cell-based. Particulars: for inhibition at 100 µM: read-out: inhibition / reduction of MERS-CoV RdRp activity.
For the next data set, the system named is HEK293T cells. The data set is described as follows: cytotoxicity / cell viability (CellTiter 96 AQueous One Solution).
Setting [1] is: HEK-293T, read-out: MERS-CoV RdRp activity (%).

Sequence of MERS-CoV RdRp (K9N7C7 4378-5310 limits assumed): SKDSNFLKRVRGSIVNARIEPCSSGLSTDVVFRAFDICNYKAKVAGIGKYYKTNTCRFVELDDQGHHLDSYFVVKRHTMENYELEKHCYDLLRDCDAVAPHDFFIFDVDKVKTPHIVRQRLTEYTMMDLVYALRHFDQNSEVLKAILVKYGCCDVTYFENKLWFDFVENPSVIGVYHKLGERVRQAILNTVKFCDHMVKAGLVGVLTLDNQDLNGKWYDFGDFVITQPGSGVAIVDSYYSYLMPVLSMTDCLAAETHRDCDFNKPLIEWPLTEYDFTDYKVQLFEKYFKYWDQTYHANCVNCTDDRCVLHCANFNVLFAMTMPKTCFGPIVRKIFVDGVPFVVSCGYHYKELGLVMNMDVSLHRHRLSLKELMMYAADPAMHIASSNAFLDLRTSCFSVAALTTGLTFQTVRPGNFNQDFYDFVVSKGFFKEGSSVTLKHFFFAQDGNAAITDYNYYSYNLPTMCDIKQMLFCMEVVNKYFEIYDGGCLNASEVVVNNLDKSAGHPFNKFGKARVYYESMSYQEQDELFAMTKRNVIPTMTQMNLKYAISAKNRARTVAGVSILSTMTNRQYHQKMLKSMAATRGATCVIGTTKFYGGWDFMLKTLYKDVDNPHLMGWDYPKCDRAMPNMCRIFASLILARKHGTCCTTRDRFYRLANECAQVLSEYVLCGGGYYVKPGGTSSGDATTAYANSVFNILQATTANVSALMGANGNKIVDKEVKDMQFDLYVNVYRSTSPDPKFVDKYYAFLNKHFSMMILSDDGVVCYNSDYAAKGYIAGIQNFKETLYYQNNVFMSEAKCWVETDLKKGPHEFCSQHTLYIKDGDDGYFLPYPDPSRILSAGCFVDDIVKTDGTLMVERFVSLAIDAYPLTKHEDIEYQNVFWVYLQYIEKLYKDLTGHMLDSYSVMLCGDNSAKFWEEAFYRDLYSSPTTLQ

By IC50 is commonly meant the point on the concentration scale where inhibition reaches its midpoint. Higher therefore signals a need for much substance. With `COc1c(-c2ccc3cc(NS(C)(=O)=O)ccc3c2)cc(-n2ccc(=O)[nH]c2=O)cc1C(C)(C)C` [dasabuvir], at MERS-CoV RdRp, 11.6 µM corresponded to half-maximal inhibition (IC50); the “effect on MERS-CoV RdRp activity (in words)” value (“effect” for short) is “significantly inhibited, but not completely inhibited”; the “reduction of MERS-CoV RdRp activity” value is listed as “about 50%”. Besides, the activity at 10 µM at MERS-CoV RdRp (setting [1]) came out at 51.5 ± 4.2%. Further, in the data set on HEK293T cells (HEK293T cells, 10 μM, 18 hours), the cytotoxicity result is “no cytotoxicity was observed”. In addition, the “concentration at which cytotoxicity was reduced by half” value with HEK293T cells (HEK293T cells, 18 hours) stood at 27.143 µM. Moreover, in the data set on HEK293T cells (HEK293T cells, concentration exceeding 10 μM, 18 hours), the cytotoxicity result is “cytotoxicity was observed”.
For the compound `NC(=O)c1nc(F)c[nH]c1=O` [favipiravir], on MERS-CoV RdRp, the “effect” value is on record as “no significant effect”. The activity at 100 µM at MERS-CoV RdRp (setting [1]) was determined as 85.8 ± 2.4%. For the same compound, the inhibition at 100 µM at MERS-CoV RdRp (HEK-293T) is around 10%.
`Nc1ccn([C@@H]2CS[C@H](CO)O2)c(=O)n1` [lamivudine]: the activity at 100 µM on MERS-CoV RdRp (setting [1]) came to 98.3 ± 1.2%.
Take `CCC(CC)COC(=O)[C@H](C)N[P@](=O)(OC[C@H]1O[C@@](C#N)(c2ccc3c(N)ncnn23)[C@H](O)[C@@H]1O)Oc1ccccc1` [remdesivir]: at MERS-CoV RdRp, the IC50 was 5.028 ± 0.035 µM. Also, the activity at 12 µM at MERS-CoV RdRp (setting [1]) is 22.3 ± 0.3%. Moreover, the cytotoxicity entry in the data set on HEK293T cells (HEK293T cells, 12 μM) is listed as “no cytotoxicity was observed”.
On to `NC(=O)c1ncn([C@@H]2O[C@H](CO)[C@@H](O)[C@H]2O)n1` [ribavirin], for which the “effect” value on MERS-CoV RdRp is “no significant effect”. The activity at 100 µM at MERS-CoV RdRp (setting [1]) was determined as 60.3 ± 2.9%. Also, the inhibition at 100 µM at MERS-CoV RdRp (HEK-293T) is around 40%.
Take `CC(C)OC(=O)[C@H](C)N[P@](=O)(OC[C@H]1O[C@@H](n2ccc(=O)[nH]c2=O)[C@](C)(F)[C@@H]1O)Oc1ccccc1` [sofosbuvir]: on MERS-CoV RdRp, the “effect” value is “no significant effect”. Also, the activity at 100 µM on MERS-CoV RdRp (setting [1]) came to 62.4 ± 5.3%. In addition, the inhibition at 100 µM on MERS-CoV RdRp (HEK-293T) is around 40%.
For the compound `CC(C)[C@H](N)C(=O)OCCOCn1cnc2c(=O)[nH]c(N)nc21` [valacyclovir], the “effect” value at MERS-CoV RdRp was “did not reduce; also recorded: no significant effect”. Also, the activity at 100 µM at MERS-CoV RdRp (setting [1]) is 90.2 ± 3.2%.
With `Nc1ncnc2c1ncn2[C@@H]1O[C@H](CO)[C@@H](O)[C@@H]1O` [vidarabine], at MERS-CoV RdRp, the “FLuc activity (internal control)” value is “reduced in a concentration-dependent manner”, the NLuc activity entry is listed as “reduced in a concentration-dependent manner” and the “effect” value is “did not reduce; also recorded: did not affect the NLuc/FLuc ratio or MERS-CoV RdRp activity; also recorded: no significant effect”. The activity at 100 µM at MERS-CoV RdRp (setting [1]) worked out at 89.9 ± 2.9%. Moreover, the cytotoxicity entry with HEK293T cells (concentration not stated (tested up to 100 μM)) was “did not show cytotoxicity”.
Regarding `Cc1cn([C@H]2C[C@H](N=[N+]=[N-])[C@@H](CO)O2)c(=O)[nH]c1=O` [zidovudine], at MERS-CoV RdRp, the “effect” value is “did not reduce; also recorded: no significant effect”. The activity at 100 µM at MERS-CoV RdRp (setting [1]) is 111 ± 3.7%.

Source of the values: patent publication US12674148B2, “Cell-based reporter assay for screening inhibitors of coronavirus RNA-dependent RNA polymerase activity” (priority 2020, dated 2026).
